From article PMC1664607 (PLoS Medicine, 2006)
In brackets after ≈: the same amount, converted by molar mass. Read-outs that look alike come from different tables or passages of the source.

Experiments:
[1] = tested on: CYP1A1/2; test: 7-Ethoxyresorufin O-deethylation in human liver microsomes; assay type: in vitro ADME; details: 100 μM; 0.5 μM 7-ethoxyresorufin
[2] = tested on: M. tuberculosis Kurono; test: Therapeutic efficacy in an experimental mouse model of chronic TB; assay type: in vivo, ICR mice; details: for Dose that could produce a CFU reduction of at least 95%: lung; for Dose that could produce a CFU reduction of at least 95% / Dose groups that showed a significant decrease in pulmonary viable bacterial count when compared with the vehicle control group: once daily for 28 d
[3] = Plasma levels in an experimental mouse model of TB; details: in vivo, po
[4] = tested on: CYP2C8/9; test: Tolubutamide methylhydroxylation in human liver microsomes; assay type: in vitro ADME; details: 100 μM; 400 μM tolbutamide
[5] = tested on: M. tuberculosis ATCC 25618 (H37Rv); test: Susceptibility testing (agar dilution MIC); assay type: cell-based; details: Mycobacterium tuberculosis, 336 h
[6] = tested on: M. tuberculosis ATCC 35838 (H37Rv-R-R); test: microbe, parasite or virus in culture; assay type: cell-based; details: Mycobacterium tuberculosis, 336 h
[7] = tested on: M. tuberculosis ATCC 35822 (H37Rv-H-R); test: microbe, parasite or virus in culture; assay type: cell-based; details: Mycobacterium tuberculosis, 336 h
[8] = tested on: M. tuberculosis ATCC 35837 (H37Rv-E-R); test: microbe, parasite or virus in culture; assay type: cell-based; details: Mycobacterium tuberculosis, 336 h
[9] = tested on: M. tuberculosis ATCC 35820 (H37Rv-S-R); test: microbe, parasite or virus in culture; assay type: cell-based; details: Mycobacterium tuberculosis, 336 h
[10] = tested on: M. tuberculosis ATCC 35812 (Kurono); test: Susceptibility testing (agar dilution MIC); assay type: cell-based; details: Mycobacterium tuberculosis, ATCC35812, 336 h
[11] = tested on: S. typhimurium TA1537; test: Bacterial reverse mutation (BRM) test; assay type: cell-based; details: S9 mix −; positive control ACR 80 μg/plate
Protocol: (§1) The BRM test was performed in accordance with OECD Guideline 471 using Salmonella tyiphimurium TA98, TA100, TA1535, and TA1537, and Escherichia coli WP2 uvrA [11]. Each bacterial strain was pre-cultured at 37 °C for 18 h using a nutrient broth (Nissui Pharmaceutical; http://www.nissui-pharm.co.jp/index_e.html). After adjustment to 2.4 at OD660 nm, each bacterial suspension was added to a test tube containing the designated compound in the absence or presence of rat liver microsome (S9) mix. After a 20-min incubation at 37 °C, top agar was added to each test tube and the contents were poured into minimum essential medium (Oriental Yeast; http://www.oyc.co.jp/e/index.htm). The number of revertants was counted 48 h after incubation at 37 °C.

[12] = tested on: clinically isolated M. tuberculosis; test: microbe, parasite or virus in culture; assay type: cell-based; details: Mycobacterium tuberculosis; read-out: MIC90
[13] = tested on: S. typhimurium TA1535; test: Bacterial reverse mutation (BRM) test; assay type: cell-based; details: S9 mix −; positive control NaN3 0.5 μg/plate
Protocol: as §1

[14] = tested on: intracellular M. tuberculosis H37Rv in THP-1 cells; test: Activity against intracellular mycobacteria, 4-h pulsed exposure; assay type: cell-based, M. tuberculosis; human THP-1 cells; details: further 68-h culture
[15] = mouse, in vivo, po
[16] = 7H11 agar, 37 °C, 14 d, read-out: MIC

## O=c1cc(-c2ccccc2)oc2c1ccc1ccccc12 [7,8-Benzoflavone, 7,8-benzoflavone]
[1]
  Percent of Control: 3.8% of Control

## NC(=O)c1cnccn1 [PZA, pyrazinamide]
[2]; 40 mg/kg, 672 h
  Log of Viable Counts/Lung: 6.942 ± 0.205^a:NS, b:NS
[2]; 80 mg/kg, 672 h
  Log of Viable Counts/Lung: 6.168 ± 0.774^a:*, b:NS
[2]; 160 mg/kg, 672 h
  Log of Viable Counts/Lung: 5.823 ± 0.628^a:**, b:*
[2]; 320 mg/kg, 672 h
  Log of Viable Counts/Lung: 5.009 ± 0.539^a:**, b:**
[2]
  Dose that could produce a CFU reduction of at least 95%: 160 mg/kg
  Dose groups that showed a significant decrease in pulmonary viable bacterial count when compared with the vehicle control group: 80, 160, and 320 mg/kg
[3]
  AUC(0-t): 197000 ng·h/mL
  concentration at 0.083 h: 49600 ± 11200 ng/mL
  concentration at 0.25 h: 59100 ± 14100 ng/mL
  concentration at 0.5 h: 63200 ± 28900 ng/mL
  concentration at 1 h: 60200 ± 18700 ng/mL
  concentration at 2 h: 35500 ± 6450 ng/mL
  concentration at 4 h: 18400 ± 3090 ng/mL
[3]; 100 mg/kg
  AUC(0-t): 198000 ng·h/mL
  Cmax: 63200 ng/mL
  Tmax: 0.5 h
  half-life: 1.1 h

## Nc1ccc(S(=O)(=O)Nc2ccnn2-c2ccccc2)cc1 [Sulfaphenazole, sulfaphenazole]
[4]
  Percent of Control: 25.5% of Control

## CCC1Cn2cc([N+](=O)[O-])nc2O1 (stereo not drawn) [CGI-17341]
[5]; [16]
  MIC: 0.2 µg/mL (≈ 1.09 µM)
[6]
  MIC: 0.05 µg/mL (≈ 0.273 µM)
[7]
  MIC: 0.2 µg/mL (≈ 1.09 µM)
[8]
  MIC: 0.2 µg/mL (≈ 1.09 µM)
[9]
  MIC: 0.2 µg/mL (≈ 1.09 µM)
[10]; [16]
  MIC: 0.2 µg/mL (≈ 1.09 µM)

## Nc1c2ccccc2nc2ccccc12 [ACR, 9-aminoacridine]
[11]
  Revertants/Plate: 64 953 Revertants/Plate

## O=c1c(O)c(-c2ccc(O)c(O)c2)oc2cc(O)cc(O)c12 [Quercetin, quercetin]
[4]
  Percent of Control: 30.6% of Control

## CN[C@@H]1[C@H](O[C@H]2[C@H](O[C@H]3[C@H](O)[C@@H](O)[C@H](N=C(N)N)[C@@H](O)[C@@H]3N=C(N)N)O[C@@H](C)[C@]2(O)C=O)O[C@@H](CO)[C@H](O)[C@H]1O [SM, streptomycin]
[5]
  MIC: 1.56 µg/mL (≈ 2.68 µM)
[6]
  MIC: 0.78 µg/mL (≈ 1.34 µM)
[7]
  MIC: 0.78 µg/mL (≈ 1.34 µM)
[8]
  MIC: 0.78 µg/mL (≈ 1.34 µM)
[9]
  MIC: > 100 µg/mL
[10]
  MIC: 0.78 µg/mL (≈ 1.34 µM)
[12]
  MIC90: 2.94 µg/mL (≈ 5.05 µM)
[2]; 20 mg/kg, 672 h
  Log of Viable Counts/Lung: 6.000 ± 0.553^a:**, b:*
[2]; 40 mg/kg, 672 h
  Log of Viable Counts/Lung: 6.040 ± 0.361^a:**, b:*
[2]; 80 mg/kg, 672 h
  Log of Viable Counts/Lung: 5.739 ± 0.309^a:**, b:**
[2]; 160 mg/kg, 672 h
  Log of Viable Counts/Lung: 5.184 ± 0.461^a:**, b:**
[2]
  Dose that could produce a CFU reduction of at least 95%: 40 mg/kg
  Dose groups that showed a significant decrease in pulmonary viable bacterial count when compared with the vehicle control group: 20, 40, 80, and 160 mg/kg

## [N-]=[N+]=[N-].[Na+] [NaN3, sodium azide]
[13]
  Revertants/Plate: 6 174 Revertants/Plate

## O=[N+]([O-])c1cn2c(n1)OC[C@@H](OCc1ccc(OC(F)(F)F)cc1)C2 [PA-824]
[5]
  MIC: 0.2 µg/mL (≈ 0.557 µM)
[6]
  MIC: 0.1 µg/mL (≈ 0.278 µM)
[7]
  MIC: 0.05 µg/mL (≈ 0.139 µM)
[8]
  MIC: 0.2 µg/mL (≈ 0.557 µM)
[9]
  MIC: 0.2 µg/mL (≈ 0.557 µM)
[10]
  MIC: 0.2 µg/mL (≈ 0.557 µM)
[14]
  Activity against intracellular M. tuberculosis H37Rv: poor activity
[2]; 1.25 mg/kg, 672 h
  Log of Viable Counts/Lung: 6.905 ± 0.382^c:NS, d:NS
[2]; 2.5 mg/kg, 672 h
  Log of Viable Counts/Lung: 6.567 ± 0.108^c:NS, d:NS
[2]; 5 mg/kg, 672 h
  Log of Viable Counts/Lung: 6.329 ± 0.303^c:NS, d:NS
[2]; 10 mg/kg, 672 h
  Log of Viable Counts/Lung: 6.244 ± 0.728^c:NS, d:NS
[2]; 20 mg/kg, 672 h
  Log of Viable Counts/Lung: 4.688 ± 0.944^c:**, d:**
[2]; 40 mg/kg, 672 h
  Log of Viable Counts/Lung: 5.145 ± 0.444^c:**, d:**

## CO[C@H]1/C=C/O[C@@]2(C)Oc3c(C)c(O)c4c(O)c(c(/C=N/N5CCN(C)CC5)c(O)c4c3C2=O)NC(=O)/C(C)=C\C=C\[C@H](C)[C@H](O)[C@@H](C)[C@@H](O)[C@@H](C)[C@H](OC(C)=O)[C@@H]1C [RFP, rifampicin]
[5]; [16]
  MIC: 0.78 µg/mL (≈ 0.948 µM)
[6]
  MIC: > 100 µg/mL
[7]
  MIC: 0.39 µg/mL (≈ 0.474 µM)
[8]
  MIC: 0.2 µg/mL (≈ 0.243 µM)
[9]
  MIC: 0.78 µg/mL (≈ 0.948 µM)
[10]; [16]
  MIC: 0.39 µg/mL (≈ 0.474 µM)
[12]
  MIC90: 0.288 µg/mL (≈ 0.35 µM)
[2]; 1.25 mg/kg once daily for 28 d (4 weeks), mean ± S.D., n = 5
  Log of Viable Counts/Lung: 7.409 ± 0.201^c:NS, d:NS
[2]; 10 mg/kg once daily for 28 d (4 weeks), mean ± S.D., n = 5
  Log of Viable Counts/Lung: 3.972 ± 0.596^c:**, d:**
[2]; 20 mg/kg once daily for 28 d (4 weeks), mean ± S.D., n = 5
  Log of Viable Counts/Lung: 3.279 ± 0.330^c:**, d:**
[2]
  Dose that could produce a CFU reduction of at least 95%: 3.5 mg/kg
[15]
  Concentration, 0.5 h: 3330 ± 870 ng/mL
  Concentration, 1 h: 4490 ± 1040 ng/mL
  Concentration, 2 h: 4520 ± 1900 ng/mL
  Concentration, 4 h: 3820 ± 700 ng/mL
  Concentration, 6 h: 5100 ± 1630 ng/mL
  Concentration, 16 h: 660 ± 260 ng/mL
[3]; 5 mg/kg
  AUC(0-t): 48200 ng·h/mL
  Cmax: 5100 ng/mL
  Tmax: 6 h

## CC[C@@H](CO)NCCN[C@@H](CC)CO [EB, ethambutol]
[5]
  MIC: 1.56 µg/mL (≈ 7.64 µM)
[6]
  MIC: 1.56 µg/mL (≈ 7.64 µM)
[7]
  MIC: 3.13 µg/mL (≈ 15.3 µM)
[8]
  MIC: 50 µg/mL (≈ 245 µM)
[9]
  MIC: 3.13 µg/mL (≈ 15.3 µM)
[10]
  MIC: 3.13 µg/mL (≈ 15.3 µM)
[12]
  MIC90: 3.64 µg/mL (≈ 17.8 µM)
[2]; 20 mg/kg, 672 h
  Log of Viable Counts/Lung: 6.923 ± 0.721^a:NS, b:NS
[2]; 40 mg/kg, 672 h
  Log of Viable Counts/Lung: 6.696 ± 0.382^a:NS, b:NS
[2]; 80 mg/kg, 672 h
  Log of Viable Counts/Lung: 6.429 ± 0.475^a:NS, b:NS
[2]; 160 mg/kg, 672 h
  Log of Viable Counts/Lung: 5.642 ± 0.120^a:**, b:**
[2]
  Dose that could produce a CFU reduction of at least 95%: > 160 mg/kg
  Dose groups that showed a significant decrease in pulmonary viable bacterial count when compared with the vehicle control group: 160 mg/kg
[3]
  AUC(0-t): 12200 ng·h/mL
  concentration at 0.083 h: 55 ± 49 ng/mL
  concentration at 0.25 h: 1300 ± 939 ng/mL
  concentration at 0.5 h: 3170 ± 392 ng/mL
  concentration at 1 h: 3510 ± 1130 ng/mL
  concentration at 2 h: 2510 ± 1010 ng/mL
  concentration at 4 h: 1020 ± 202 ng/mL
[3]; 100 mg/kg
  AUC(0-t): 12100 ng·h/mL
  Cmax: 3510 ng/mL
  Tmax: 1 h
  half-life: 2.8 h

## Cc1nc2c([nH]1)c(=O)n(C)c(=O)n2Cc1ccco1 [Furafylline, furafylline]
[1]
  Percent of Control: 32.3% of Control
